Assay [1] concerns the target MET (Homo sapiens, UniProt P08581). The assay can be described thus: Evaluation of inhibitory activity to MET. Format: biochemical. From the text: (§1) Experimental Example 1. Evaluation of Inhibitory Activity to RON and MET
In assay [2] the target is RON (Homo sapiens, UniProt Q04912). In words: Evaluation of inhibitory activity to RON. Type of assay: biochemical.
Text: as §1

Structures are written as SMILES. Where only a bound is given, the exact number is not on record here.

RON, sequence (Q04912 25-1400): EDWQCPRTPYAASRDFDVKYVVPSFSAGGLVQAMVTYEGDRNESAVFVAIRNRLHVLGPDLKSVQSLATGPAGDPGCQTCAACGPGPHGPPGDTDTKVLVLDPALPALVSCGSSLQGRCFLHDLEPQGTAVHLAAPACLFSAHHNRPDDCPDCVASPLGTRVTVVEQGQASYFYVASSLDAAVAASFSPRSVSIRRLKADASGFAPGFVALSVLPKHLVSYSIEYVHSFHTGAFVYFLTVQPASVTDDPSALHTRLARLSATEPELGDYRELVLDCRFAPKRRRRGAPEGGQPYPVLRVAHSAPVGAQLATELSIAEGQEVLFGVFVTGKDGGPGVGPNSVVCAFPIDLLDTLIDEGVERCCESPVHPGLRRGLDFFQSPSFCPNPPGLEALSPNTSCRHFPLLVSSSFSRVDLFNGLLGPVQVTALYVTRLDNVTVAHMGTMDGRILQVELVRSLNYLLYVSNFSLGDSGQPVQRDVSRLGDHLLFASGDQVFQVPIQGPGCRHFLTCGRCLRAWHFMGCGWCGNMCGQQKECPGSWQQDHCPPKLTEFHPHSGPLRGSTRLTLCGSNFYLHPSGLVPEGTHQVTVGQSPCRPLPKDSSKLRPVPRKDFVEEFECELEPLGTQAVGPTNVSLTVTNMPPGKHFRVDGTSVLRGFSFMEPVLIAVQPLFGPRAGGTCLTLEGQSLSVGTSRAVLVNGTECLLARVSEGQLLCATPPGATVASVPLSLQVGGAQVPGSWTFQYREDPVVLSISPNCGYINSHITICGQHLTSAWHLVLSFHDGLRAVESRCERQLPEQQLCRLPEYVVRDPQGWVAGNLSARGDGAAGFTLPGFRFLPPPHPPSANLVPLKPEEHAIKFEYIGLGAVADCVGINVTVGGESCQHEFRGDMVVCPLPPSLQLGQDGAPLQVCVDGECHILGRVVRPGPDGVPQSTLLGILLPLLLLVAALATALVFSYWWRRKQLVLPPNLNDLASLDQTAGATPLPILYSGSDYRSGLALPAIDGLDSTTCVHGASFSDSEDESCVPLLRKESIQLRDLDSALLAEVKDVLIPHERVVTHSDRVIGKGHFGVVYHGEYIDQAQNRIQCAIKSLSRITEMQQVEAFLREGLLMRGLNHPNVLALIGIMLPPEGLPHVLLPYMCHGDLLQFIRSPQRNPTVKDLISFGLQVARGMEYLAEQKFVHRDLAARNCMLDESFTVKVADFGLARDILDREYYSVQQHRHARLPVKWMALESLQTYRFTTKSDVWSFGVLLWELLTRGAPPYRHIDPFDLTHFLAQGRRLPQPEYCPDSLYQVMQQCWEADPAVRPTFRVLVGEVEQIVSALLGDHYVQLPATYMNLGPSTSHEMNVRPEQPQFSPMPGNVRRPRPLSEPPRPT
MET, sequence (P08581 25-1390): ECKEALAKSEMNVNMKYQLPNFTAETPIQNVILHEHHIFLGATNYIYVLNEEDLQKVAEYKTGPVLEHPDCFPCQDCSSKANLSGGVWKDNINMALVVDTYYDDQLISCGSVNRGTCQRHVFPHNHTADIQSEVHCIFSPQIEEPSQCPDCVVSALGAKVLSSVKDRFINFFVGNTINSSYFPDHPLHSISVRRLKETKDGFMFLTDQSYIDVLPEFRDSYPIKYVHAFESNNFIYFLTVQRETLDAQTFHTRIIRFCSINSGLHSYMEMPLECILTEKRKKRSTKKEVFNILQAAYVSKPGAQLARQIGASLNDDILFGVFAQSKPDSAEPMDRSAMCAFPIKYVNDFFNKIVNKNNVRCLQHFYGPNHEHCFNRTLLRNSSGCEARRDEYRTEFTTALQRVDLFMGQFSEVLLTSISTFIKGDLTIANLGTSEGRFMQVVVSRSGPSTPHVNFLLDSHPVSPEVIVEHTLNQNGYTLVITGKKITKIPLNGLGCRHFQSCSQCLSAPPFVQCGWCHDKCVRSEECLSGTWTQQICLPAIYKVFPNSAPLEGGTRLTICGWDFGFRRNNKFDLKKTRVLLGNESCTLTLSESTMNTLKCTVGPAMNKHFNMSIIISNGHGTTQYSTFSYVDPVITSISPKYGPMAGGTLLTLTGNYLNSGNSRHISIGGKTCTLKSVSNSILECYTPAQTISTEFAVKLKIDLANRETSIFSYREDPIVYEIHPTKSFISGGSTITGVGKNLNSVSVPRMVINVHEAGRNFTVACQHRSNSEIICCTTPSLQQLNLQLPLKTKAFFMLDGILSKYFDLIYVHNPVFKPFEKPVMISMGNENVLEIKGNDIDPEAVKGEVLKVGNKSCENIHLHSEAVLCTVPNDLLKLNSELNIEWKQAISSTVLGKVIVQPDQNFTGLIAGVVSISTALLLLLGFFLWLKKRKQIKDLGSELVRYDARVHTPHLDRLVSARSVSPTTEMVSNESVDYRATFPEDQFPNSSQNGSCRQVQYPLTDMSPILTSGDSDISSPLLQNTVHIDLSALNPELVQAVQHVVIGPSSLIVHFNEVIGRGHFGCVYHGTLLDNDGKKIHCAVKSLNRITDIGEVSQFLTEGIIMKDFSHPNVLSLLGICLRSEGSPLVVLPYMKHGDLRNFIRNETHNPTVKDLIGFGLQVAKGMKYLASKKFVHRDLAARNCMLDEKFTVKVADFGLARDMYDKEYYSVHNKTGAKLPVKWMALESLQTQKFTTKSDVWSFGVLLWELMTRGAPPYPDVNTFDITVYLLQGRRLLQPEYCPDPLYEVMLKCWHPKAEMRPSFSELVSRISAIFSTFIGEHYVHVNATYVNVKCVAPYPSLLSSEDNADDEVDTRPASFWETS

One may read the IC50 as the concentration at which inhibition is half-maximal. A low value points to greater potency. Consider `CCOc1ccn(-c2ccc(F)cc2)c(=O)c1C(=O)Nc1ccc(-c2ccc(O)c(-c3ccnc(N)n3)c2)c(F)c1` [Example 1, N-(3′-(2-aminopyrimidin-4-yl)-2-fluoro-4′-hydroxy-[1,1′-biphenyl]-4-yl)-4-ethoxy-1-(4-fluorophenyl)-2-oxo-1,2-dihydropyridin-3-carboxamide], for which the values for the IC50 in assay [1] and in assay [2] were 612 nM and 144 nM, respectively.
For `COc1ccn(-c2ccc(F)cc2)c(=O)c1C(=O)Nc1ccc(-c2ccc(O)c(-c3ccnc(N)n3)c2)c(F)c1` [Example 2, N-(3′-(2-aminopyrimidin-4-yl)-2-fluoro-4′-hydroxy-[1,1′-biphenyl]-4-yl)-1-(4-fluorophenyl)-4-methoxy-2-oxo-1,2-dihydropyridin-3-carboxamide], the concentration for half-maximal inhibition (IC50) was determined as 583 nM in assay [1] and 131 nM in assay [2].
As for `Cn1cc(-c2cc(C(=O)Nc3ccc(-c4ccc(O)c(-c5ccnc(N)n5)c4)c(F)c3)c(=O)n(-c3ccc(F)cc3)c2)cn1` [Example 7, N-(3′-(2-aminopyrimidin-4-yl)-2-fluoro-4′-hydroxy-[1,1′-biphenyl]-4-yl)-1-(4-fluorophenyl)-5-(1-methyl-1H-pyrazol-4-yl)-2-oxo-1,2-dihydropyridin-3-carboxamide], the IC50 is 2230 nM in assay [1] and 942 nM in assay [2].
The like results for `Nc1nccc(-c2cc(-c3ccc(NC(=O)c4cc(C5CC5)cn(-c5ccc(F)cc5)c4=O)cc3F)ccc2O)n1` [Example 8] were, in that order, 2090 nM and 834 nM.
For `Nc1nccc(-c2cc(-c3ccc(NC(=O)c4ccc(CO)n(-c5ccc(F)cc5)c4=O)cc3F)ccc2O)n1` [Example 10, N-(3′-(2-aminopyrimidin-4-yl)-2-fluoro-4′-hydroxy-[1,1′-biphenyl]-4-yl)-1-(4-fluorophenyl)-6-(hydroxymethyl)-2-oxo-1,2-dihydropyridin-3-carboxamide] the same measures were 1710 nM and 855 nM.
The like results for `CCOc1ccn(-c2ccc(F)cc2)c(=O)c1C(=O)Nc1ccc(-c2ccc(O)c(-c3ccnc(N)n3)c2)c(C)c1` [Example 13, N-(3′-(2-aminopyrimidin-4-yl)-4′-hydroxy-2-methyl-[1,1′-biphenyl]-4-yl)-4-ethoxy-1-(4-fluorophenyl)-2-oxo-1,2-dihydropyridin-3-carboxamide] were, in that order, 2940 nM and 1330 nM.
Take `CCOc1ccn(-c2ccc(F)cc2)c(=O)c1C(=O)Nc1ccc(-c2ccc(OC)c(-c3cnc(N)nc3)c2)c(F)c1` [Example 17, N-(3′-(2-aminopyrimidin-5-yl)-2-fluoro-4′-methoxy-[1,1′-biphenyl]-4-yl)-4-ethoxy-1-(4-fluorophenyl)-2-oxo-1,2-dihydropyridin-3-carboxamide]: the IC50 in assay [1] is more than 10000 nM; in assay [2] it was 2300 nM.
In assay [1], `CC(=O)c1cc(Oc2ccc(NC(=O)c3ccc(C)n(-c4ccc(F)cc4)c3=O)cc2F)ccc1O` [Example 37, N-(4-(3-acetyl-4-hydroxyphenoxy)-3-fluorophenyl)-1-(4-fluorophenyl)-6-methyl-2-oxo-1,2-dihydropyridin-3-carboxamide] yielded a half-inhibitory concentration (IC50) of 954 nM.
As for `C/C(=N\O)c1cc(Oc2ccc(NC(=O)c3ccc(C)n(-c4ccc(F)cc4)c3=O)cc2F)ccc1O` [Example 38, (E)-N-(3-fluoro-4-(4-hydroxy-3-(1-(hydroxyimino)ethyl)phenoxy)phenyl)-1-(4-fluorophenyl)-6-methyl-2-oxo-1,2-dihydropyridin-3-carboxamide], inhibition in assay [1] was half-maximal at 354 nM (IC50).
Still for that read-out and setting: the same measure for `Cc1ccc(C(=O)Nc2ccc(Oc3ccc(O)c(-c4ccnc(N)n4)c3)c(F)c2)c(=O)n1-c1ccc(F)cc1` [Example 40, N-(4-(3-(2-aminopyrimidin-4-yl)-4-hydroxyphenoxy)-3-fluorophenyl)-1-(4-fluorophenyl)-6-methyl-2-oxo-1,2-dihydropyridin-3-carboxamide]: 4 nM.
